Values quoted from earlier work as cited in publication PMC3877923 (Journal of the American Chemical Society, 2013).
Marks after values point to notes of the source that are not given here.

## Cc1cc(C#N)cc(C)c1Oc1nc(Nc2ccc(C#N)cc2)nc(N)c1Br [etravirine]
  Aqueous solubility S: << 1 ^b µg/mL
